Reference: US20180243290A1, “MORPHINAN COMPOUNDS FOR TREATING AGITATION” (Concert Pharmaceuticals, Inc., priority 2015, published 2018)

Tests used:
[1] = Metabolic stability in extensive metabolizer human liver microsomes with and without quinidine; assay type: in vitro ADME; conditions: for CLint scaled at 100 ng/mL / half-life at 100 ng/mL: human; for CLint scaled at 100 ng/mL / % Δ (D6-Dimemorfan/Dimemorfan) of t1/2 / Clint, app Ratio (D6-Dimemorfan/Dimemorfan) / Clint, app Ratio (respective to 0 concentration of Quinidine) / t1/2 Ratio (respective to 0 concentration of Quinidine): EM HLM; for half-life at 100 ng/mL: EM HLM 1.0 mg/mL, 100 ng/mL test compound, 60 min
Experimental: Individual donor with extensive metabolizer human liver microsomes (EM HLM) (20 mg/mL) with CYP2D6 activity of 957±19 pmol/mg protein/min, genotyped for CYP2D6 allelic variant-CYP2D6*1/*2x2, were obtained from Xenotech, LLC (Lenexa, Kans.). β-nicotinamide adenine dinucleotide phosphate, reduced form (NADPH), magnesium chloride (MgCl2), dimethyl sulfoxide (DMSO), acetonitrile (ACN), quinidine, and dextromethorphan (DM) were purchased from Sigma-Aldrich. Dimemorfan and d6-dimemorfan (Compound 100) were synthesized by Adesis, Inc.
1.0 mg/mL stock solutions of test compounds dextromethorphan (DM), dimemorfan, and d6-dimemorfan (Compound 100) were prepared in DMSO. The 1.0 mg/mL stock solutions were diluted to 10,000 ng/mL in acetonitrile (ACN). A 10 mM stock solution of quinidine was prepared in acetonitrile, which was then diluted further in acetonitrile to produce 20 μM, 10 μM, 5 μM, 2.5 μM, and 1.25 μM solutions of quinidine. The human liver microsomes were diluted to 1.25 mg/mL in 0.1 M potassium phosphate buffer, pH 7.4, containing 3 mM MgCl2. The diluted microsomes were added to wells of a 96-well deep-well polypropylene plate in triplicate. A 5 μL aliquot of each 10,000 ng/mL test compound was added to the microsomes, and the mixture was pre-warmed at 37° C. for 7 minutes, then a 5 μL aliquot of each quinidine solution was added (except in control wells where no quinidine was added). Reactions were initiated by addition of pre-warmed NADPH solution to the mixture. The final reaction volume was 0.5 mL and contained 1.0 mg/mL human liver microsomes, 100 ng/mL of test compound, 0.2, 0.1, 0.05, 0.025, 0.0125, or 0 μM of quinidine, and 2 mM NADPH in 0.1 M potassium phosphate buffer, pH 7.4, and 3 mM MgCl2. The reaction mixtures were incubated at 37° C., and 50 μL aliquots were removed at 0, 15, 30, and 60 minutes and added to shallow-well 96-well plates which contained 50 μL of ice-cold ACN with internal standard to stop the reactions. The plates were stored at 4° C. for 20 minutes after which 100 μL of water was added to the wells of the plate before centrifugation to pellet precipitated proteins. Supernatants were transferred to another 96-well plate and analyzed for amounts of parent remaining by LC-MS/MS using an Applied Bio-systems mass spectrometer. Amount of parent remaining was quantified via standard curve.
The in vitro till's for test compounds were calculated from the slopes of the linear regression of % parent remaining (1n) vs. incubation time relationship.
k=−[slope of linear regression of % parent remaining(ln) vs incubation time]
The apparent intrinsic clearance was calculated using the following equation:
CLint (mL/min/kg)=(0.693/in vitro t1/2) (Incubation Volume/mg of microsomes) • (45 mg microsomes/gram of liver) (20 gm of liver/kg b.w.)
Data analysis was performed using Microsoft Excel Software.

[2] = healthy human males; cited from earlier work
[3] = pH 7.4, with none (quinidine 0 µM, control), quinidine 0 μM
[4] = pH 7.4, with quinidine 0.0125 µM, quinidine 0.0125 μM
[5] = pH 7.4, with quinidine 0.025 µM, quinidine 0.025 μM
[6] = pH 7.4, with quinidine 0.05 µM, quinidine 0.05 μM
[7] = pH 7.4, with quinidine 0.1 µM, quinidine 0.1 μM
[8] = pH 7.4, with quinidine 0.2 µM, quinidine 0.2 μM

| SMILES | CLint scaled at 100 ng/mL [1, 3] [mL/min/kg] | half-life at 100 ng/mL [1, 3] [min] | CLint scaled at 100 ng/mL [1, 4] [mL/min/kg] | half-life at 100 ng/mL [1, 4] [min] | CLint scaled at 100 ng/mL [1, 5] [mL/min/kg] | half-life at 100 ng/mL [1, 5] [min] | CLint scaled at 100 ng/mL [1, 6] [mL/min/kg] | half-life at 100 ng/mL [1, 6] [min] | CLint scaled at 100 ng/mL [1, 7] [mL/min/kg] | half-life at 100 ng/mL [1, 7] [min] | CLint scaled at 100 ng/mL [1, 8] [mL/min/kg] | half-life at 100 ng/mL [1, 8] [min] | Clint, app Ratio (respective to 0 concentration of Quinidine) ([1]; quinidine 0 μM) | t1/2 Ratio (respective to 0 concentration of Quinidine) ([1]; quinidine 0 μM) | Clint, app Ratio (respective to 0 concentration of Quinidine) ([1]; quinidine 0.0125 μM) | t1/2 Ratio (respective to 0 concentration of Quinidine) ([1]; quinidine 0.0125 μM) | Clint, app Ratio (respective to 0 concentration of Quinidine) ([1]; quinidine 0.025 μM) | t1/2 Ratio (respective to 0 concentration of Quinidine) ([1]; quinidine 0.025 μM) | Clint, app Ratio (respective to 0 concentration of Quinidine) ([1]; quinidine 0.05 μM) | t1/2 Ratio (respective to 0 concentration of Quinidine) ([1]; quinidine 0.05 μM) | other results |
| --- | --- | --- | --- | --- | --- | --- | --- | --- | --- | --- | --- | --- | --- | --- | --- | --- | --- | --- | --- | --- | --- |
| [2H]C([2H])([2H])c1ccc2c(c1)[C@]13CCCC[C@@H]1[C@H](C2)N(C([2H])([2H])[2H])CC3 [D6-Dimemorfan] | 48.2 | 6.5 | 30.9 | 10.1 | 23.6 | 13.2 | 17.3 | 18 | 10 | 31.1 | 8.2 | 37.9 | 1.0 | 1.0 | 0.64 | 1.6 | 0.49 | 2.0 | 0.36 | 2.8 | % Δ (D6-Dimemorfan/Dimemorfan) of t1/2 ([1]; quinidine 0 μM): 35%; Clint, app Ratio (D6-Dimemorfan/Dimemorfan) ([1]; quinidine 0 μM): 0.74; % Δ (D6-Dimemorfan/Dimemorfan) of t1/2 ([1]; quinidine 0.0125 μM): 59%; Clint, app Ratio (D6-Dimemorfan/Dimemorfan) ([1]; quinidine 0.0125 μM): 0.61; % Δ (D6-Dimemorfan/Dimemorfan) of t1/2 ([1]; quinidine 0.025 μM): 3%; Clint, app Ratio (D6-Dimemorfan/Dimemorfan) ([1]; quinidine 0.025 μM): 0.96; % Δ (D6-Dimemorfan/Dimemorfan) of t1/2 ([1]; quinidine 0.05 μM): 11%; Clint, app Ratio (D6-Dimemorfan/Dimemorfan) ([1]; quinidine 0.05 μM): 0.90; % Δ (D6-Dimemorfan/Dimemorfan) of t1/2 ([1]; quinidine 0.1 μM): 22%; Clint, app Ratio (D6-Dimemorfan/Dimemorfan) ([1]; quinidine 0.1 μM): 0.82; Clint, app Ratio (respective to 0 concentration of Quinidine) ([1]; quinidine 0.1 μM): 0.21; t1/2 Ratio (respective to 0 concentration of Quinidine) ([1]; quinidine 0.1 μM): 4.8; % Δ (D6-Dimemorfan/Dimemorfan) of t1/2 ([1]; quinidine 0.2 μM): −12%; Clint, app Ratio (D6-Dimemorfan/Dimemorfan) ([1]; quinidine 0.2 μM): 1.11; Clint, app Ratio (respective to 0 concentration of Quinidine) ([1]; quinidine 0.2 μM): 0.17; t1/2 Ratio (respective to 0 concentration of Quinidine) ([1]; quinidine 0.2 μM): 5.8 |
| COc1ccc2c(c1)[C@]13CCCC[C@@H]1[C@H](C2)N(C)CC3 [DM, (+)-3-methoxy-17-methyl-(9α,13α,14α)-morphinan] | 15.4 | 20.5 | 12.1 | 25.6 | 10.6 | 29.6 | 9.5 | 33 | 7.4 | 42.1 | 4.8 | 64.5 | 1.0 | 1.0 | 0.79 | 1.2 | 0.69 | 1.4 | 0.62 | 1.6 | Clint, app Ratio (respective to 0 concentration of Quinidine) ([1]; quinidine 0.1 μM): 0.48; t1/2 Ratio (respective to 0 concentration of Quinidine) ([1]; quinidine 0.1 μM): 2.1; Clint, app Ratio (respective to 0 concentration of Quinidine) ([1]; quinidine 0.2 μM): 0.31; t1/2 Ratio (respective to 0 concentration of Quinidine) ([1]; quinidine 0.2 μM): 3.1 |
| Cc1ccc2c(c1)[C@]13CCCC[C@@H]1[C@H](C2)N(C)CC3 [Dimemorfan, (+)-(9α,13α,14α)-3,17-dimethylmorphinan] | 64.9 | 4.81 | 50.8 | 6.34 | 24.7 | 12.8 | 19.3 | 16.2 | 12.2 | 25.5 | 7.4 | 43.1 | 1.0 | 1.0 | 0.78 | 1.3 | 0.38 | 2.7 | 0.30 | 3.4 | Clint, app Ratio (respective to 0 concentration of Quinidine) ([1]; quinidine 0.1 μM): 0.19; t1/2 Ratio (respective to 0 concentration of Quinidine) ([1]; quinidine 0.1 μM): 5.3; Clint, app Ratio (respective to 0 concentration of Quinidine) ([1]; quinidine 0.2 μM): 0.11; t1/2 Ratio (respective to 0 concentration of Quinidine) ([1]; quinidine 0.2 μM): 9.0; fraction of a dose metabolized [2]: Greater than 98% |
